Data as given in patent publication US12201633B2, “Compounds and methods for treatment of visceral pain” (Arena Pharmaceuticals, Inc., priority 2017, dated 2025).

What was measured:
[1] = tested on: rodents, models of inflammatory pain; settings: systemic delivery; cited from earlier work
[2] = tested on: rats following ligation of spinal nerves; settings: local (subcutaneous) or systemic administration; cited from earlier work
[3] = tested on: male Sprague Dawley rats, MIA model of osteoarthritis; test: Monosodium iodoacetate (MIA) model of osteoarthritis pain; type: in vivo, rat; settings: 3, 10 and 30 mg/kg orally, one hour after dosing, vehicle PEG400; FIG. 2
Source text: Injection of monosodium iodoacetate (MIA) into a joint (Kalbhen, 1987) inhibits the activity of glyceraldehyde-3-phosphate dehydrogenase in chondrocytes, resulting in disruption of glycolysis and eventually in cell death. The progressive loss of chondrocytes results in histological and morphological changes of the articular cartilage, closely resembling those seen in osteoarthritis patients.
The osteoarthritis was induced in 200 g male Sprague Dawley rats. […]
Typically, during disease progression, there was an inflammation period of 0-7 days post-intra-articular injection followed by progressive degeneration of the cartilage and subchondral bone from days 14-55. […] Tactile allodynia was measured via von Frey assay, hind limb paw weight distribution was monitored using an incapacitence tester (Columbus Instruments, Columbus, OH, USA) and hind limb grip strength was measured using a grip strength meter (Columbus Instruments, Columbus, OH, USA). […] Hind paw weight distribution was determined by placing rats in a chamber so that each hind paw rests on a separate force plate of the incapacitence tester. The force exerted by each hind limb (measured in grams) is averaged over a 3 second period. Three measurements were taken for each rat, and the change in hind paw weight distribution calculated. […]

[4] = tested on: male Sprague Dawley rats, FCA-induced hyperalgesia; test: FCA-induced hyperalgesia model of inflammatory pain; type: in vivo, rat; settings: 0.1, 1, 3, 10 and 30 mg/kg orally, 1-hour post dosing, vehicle PEG400; FIG. 1
Protocol: Animal info: Male Sprague Dawley rats from Harlan (200-225 g when received) were used. Upon arrival, rats were housed 4 per cage in shoe-box polycarbonate cages with wire tops, wood chip bedding and suspended food and water bottles. Animals were acclimated for 5-7 days prior to being injected with Freund's complete adjuvant (FCA) (Sigma; catalog #5881).
Experimental procedure: 2 days (48 h) before testing compounds, baseline readings of all rats were taken right before FCA injection. Rats were then injected with 50 μL FCA containing 1 mg/mL Mtb (Mycobacterium tuberculosis) in right hind footpad under inhalation anesthesia (isoflurane). 48 hours after FCA injection, readings were taken as pre-dosing baseline and then rats were dosed orally with 0.5 mL of vehicle or compound (0.5 mL per 250 g rat). Readings were taken again at 1-hour post dosing. All readings were taken with an Analgesy-Meter (Ugo Basile) which measures mechanical hyperalgesia via paw pressure.
Clinical scoring: FCA-induced hyperalgesia was tested with an Analgesy-Meter. Briefly, the Analgesy Meter applied an increasing pressure to the right hind paw. The paw withdrawal threshold was the pressure leading to withdrawal.
Meanwhile a group of rats were dosed orally with 50 mg/kg of Diclofenac as a positive control. Readings were taken again at 1-hour post dosing. Dosing volume was 500 μL per 250 g rat.

[5] = tested on: male Sprague Dawley rats, paclitaxel-induced allodynia; test: Paclitaxel-induced allodynia; type: in vivo, rat; settings: 10 mg/kg orally, FIG. 3
Protocol: Animals: Male Sprague Dawley rats [200-250 g] (Harlan Laboratories Inc., Livermore, CA) were housed three per cage and maintained in a humidity-controlled (40-60%) and temperature-controlled (68-72° F.) facility on a 12 h:12 h light/dark cycle (lights on at 6:30 am) with free access to food (Harlan Teklad, Orange, CA, Rodent Diet 8604) and water. Rats were allowed one week of habituation to the animal facility before starting treatment.
Induction of Allodynia: Rats were treated intraperitoneally, with 2 mg/kg of paclitaxel (Sigma Aldrich, Saint Louis, MO) in 10% Cremophor vehicle (500 μL) on days 0, 2, 4, and 6.
Clinical scoring: Tactile allodynia was tested using von Frey filaments. Briefly, the von Frey assay was performed using the standardized up down method with von Frey filaments, that determine the tactile sensitivity of the paw. By applying the increasingly or decreasingly thicker filaments to the paw in a logarithmic scale of actual force, a linear scale of perceived intensity is determined.
Drug treatment: Eight days after the start of paclitaxel dosing, a baseline measurement (von Frey assay) was performed prior to dosing of compounds. […] As a positive control, rats were dosed intraperitoneally with 100 mg/kg gabapentin in water. The dosing volume for oral and peritoneal treatment was 500 μL. […]

[6] = biological target: T1, human CB2 receptor (Homo sapiens, UniProt P34972); test: GPCR signaling assay, recombinant human CB2; type: cell-based
T1 sequence (P34972 whole entry): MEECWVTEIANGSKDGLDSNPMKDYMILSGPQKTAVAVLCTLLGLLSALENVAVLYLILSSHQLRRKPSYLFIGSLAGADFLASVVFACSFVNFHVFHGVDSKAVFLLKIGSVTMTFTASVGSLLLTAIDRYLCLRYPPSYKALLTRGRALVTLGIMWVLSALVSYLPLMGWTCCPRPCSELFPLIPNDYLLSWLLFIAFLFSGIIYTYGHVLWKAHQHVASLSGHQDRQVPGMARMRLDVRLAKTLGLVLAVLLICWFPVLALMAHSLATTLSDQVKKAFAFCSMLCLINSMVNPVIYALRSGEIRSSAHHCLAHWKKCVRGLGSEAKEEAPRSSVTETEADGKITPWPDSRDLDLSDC

[7] = biological target: T2, recombinant CB2 receptors (rat) (Rattus norvegicus, UniProt Q9QZN9); test: GPCR signaling assay, recombinant rat CB2; type: cell-based; settings: GPCR signaling assays, recombinant receptor
T2 sequence (Q9QZN9 1-360): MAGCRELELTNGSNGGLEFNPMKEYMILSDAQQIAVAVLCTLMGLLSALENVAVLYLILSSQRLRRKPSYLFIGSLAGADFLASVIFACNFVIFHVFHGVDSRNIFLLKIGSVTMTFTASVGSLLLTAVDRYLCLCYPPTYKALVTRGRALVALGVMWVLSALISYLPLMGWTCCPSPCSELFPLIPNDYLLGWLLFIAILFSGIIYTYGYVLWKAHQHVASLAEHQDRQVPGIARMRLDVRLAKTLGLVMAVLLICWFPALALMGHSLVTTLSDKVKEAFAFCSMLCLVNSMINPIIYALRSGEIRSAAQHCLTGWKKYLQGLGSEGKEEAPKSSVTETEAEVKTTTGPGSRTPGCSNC
Protocol: (§1) The binding affinity, potency, and selectivity of Compound A for recombinant CB2 receptors were determined using radioligand binding assays and GPCR signaling assays.

[8] = biological target: T3, recombinant CB2 receptors (dog) (Canis lupus familiaris, UniProt E2RKA3); test: GPCR signaling assay, recombinant dog CB2; type: cell-based; settings: GPCR signaling assays, recombinant receptor
T3 construct: other: GPCR signaling assays, recombinant receptor
T3 sequence (E2RKA3 1-360): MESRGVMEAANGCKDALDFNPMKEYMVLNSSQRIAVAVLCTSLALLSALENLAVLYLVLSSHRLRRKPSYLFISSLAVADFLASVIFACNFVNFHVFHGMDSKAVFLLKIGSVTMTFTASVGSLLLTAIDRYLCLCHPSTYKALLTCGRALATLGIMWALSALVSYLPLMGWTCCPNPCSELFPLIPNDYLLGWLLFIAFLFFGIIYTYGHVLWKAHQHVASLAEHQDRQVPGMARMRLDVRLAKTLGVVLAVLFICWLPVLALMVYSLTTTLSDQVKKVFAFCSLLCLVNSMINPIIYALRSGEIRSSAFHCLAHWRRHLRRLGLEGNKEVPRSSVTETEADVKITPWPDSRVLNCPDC
Protocol: as §1

[9] = biological target: T4, hCB1 (Homo sapiens, UniProt P21554); test: Interaction with recombinant human CB1; settings: test concentrations up to 10 μM
T4 sequence (P21554 whole entry): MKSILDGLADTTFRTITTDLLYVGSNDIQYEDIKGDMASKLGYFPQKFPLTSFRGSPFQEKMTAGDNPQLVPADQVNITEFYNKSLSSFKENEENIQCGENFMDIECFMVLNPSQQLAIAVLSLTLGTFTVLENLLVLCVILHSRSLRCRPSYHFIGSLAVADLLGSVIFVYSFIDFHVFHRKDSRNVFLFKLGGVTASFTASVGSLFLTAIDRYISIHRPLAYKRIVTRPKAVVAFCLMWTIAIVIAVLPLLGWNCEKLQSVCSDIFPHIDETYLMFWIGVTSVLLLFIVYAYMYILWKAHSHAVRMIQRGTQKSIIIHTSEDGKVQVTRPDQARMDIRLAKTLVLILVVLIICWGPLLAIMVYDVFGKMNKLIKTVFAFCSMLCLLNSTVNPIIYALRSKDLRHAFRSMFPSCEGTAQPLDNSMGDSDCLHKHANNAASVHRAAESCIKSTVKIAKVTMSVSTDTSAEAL

[10] = biological target: recombinant rat CB1 receptors (Rattus norvegicus, UniProt P20272); test: Interaction with recombinant rat CB1; settings: test concentrations up to 10 μM
Sequence of recombinant rat CB1 receptors (P20272 whole entry): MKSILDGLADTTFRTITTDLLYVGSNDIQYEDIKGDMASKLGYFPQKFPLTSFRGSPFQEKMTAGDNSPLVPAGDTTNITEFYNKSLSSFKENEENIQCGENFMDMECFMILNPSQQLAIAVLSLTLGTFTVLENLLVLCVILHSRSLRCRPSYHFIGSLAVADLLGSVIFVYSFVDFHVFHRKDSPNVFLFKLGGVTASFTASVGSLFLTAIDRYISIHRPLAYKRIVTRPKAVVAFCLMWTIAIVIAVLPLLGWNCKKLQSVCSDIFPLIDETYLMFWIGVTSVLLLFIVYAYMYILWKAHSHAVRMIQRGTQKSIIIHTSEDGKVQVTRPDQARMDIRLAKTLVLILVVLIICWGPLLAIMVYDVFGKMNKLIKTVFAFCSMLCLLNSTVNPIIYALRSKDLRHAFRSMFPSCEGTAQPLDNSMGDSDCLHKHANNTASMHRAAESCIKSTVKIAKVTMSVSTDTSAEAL

[11] = tested on: recombinant dog CB1 receptors; test: Interaction with recombinant dog CB1; settings: test concentrations up to 10 μM
[12] = tested on: male Sprague-Dawley rats, STZ-induced PDPN; test: Streptozotocin-induced painful diabetic peripheral neuropathy (PDPN) model; type: in vivo, rat; settings: 10 mg/kg orally in 0.5% methylcellulose; 1, 4 and 6 hours post-dosing; FIG. 9, FIG. 10
Protocol: Male Sprague-Dawley rats were injected intraperitoneally with 50 mg/kg of streptozotocin (STZ) in sodium citrate buffer. 10% sucrose water was provided ad libitum for the first 48 hours post-STZ followed by regular drinking water. Rats were monitored once weekly for blood glucose levels and body weights. Development of tactile allodynia over time was analyzed using Von Frey filaments and a 50% withdrawal threshold was determined using Dixon's up-down procedure. […] Tactile allodynia was evaluated at 1, 4 and 6 hours post-dosing.

[13] = tested on: Sprague Dawley rats, acetic acid-induced writhing; test: Acetic acid-induced writhing model of visceral pain; type: in vivo, rat; settings: 3, 10, 30 mg/kg PO, acetic acid 1.5% IP; FIGS. 11 and 12
Protocol: Writhing is induced in male Sprague Dawley rats by administering glacial acetic acid (1.5%) intraperitoneally (IP). […] On test day, rats are placed in observation cages and administered compound according to the schedules in Tables D, F, H, and J. Treatment groups are as provided in Tables E, G, I, and K.
Studies are performed to evaluate single dose assessment (Tables D and E), maintenance of efficacy after repeated administration (Tables F and G), antagonist interactions (Tables H and I), and dose response (Tables J and K).
Writhing behavior is scored for 30 minutes in five-minute time bins.
Writhing behavior was evaluated 20 minutes later and recorded for 30 minutes (in five-minute bins).

[14] = tested on: rats with TNBS-induced colitis and healthy rats; test: Visceral pain model of colitis: visceromotor response to colorectal distension after TNBS; type: in vivo, rat
Protocol: Rats with active colitis display allodynia and hyperalgesia to colorectal distension following the administration of trinitrobenzene sulfonic acid (TNBS).
Abdominal electromyographic (EMG) electrode implantation is followed by measurement of visceromotor response (VMR) at 0, 20, 40, 60, and 80 mmHg of colorectal distention on day 4. The effect of each treatment on colonic compliance is also determined.
Abdominal EMG electrode implantation is followed by measurement of VMR at 0, 20, 40, 60, and 80 mmHg of colorectal distention on day 4. The effect of each treatment on colonic compliance is also determined.

[15] = biological target: T4, hCB1; test: Radioligand binding assay, hCB1; settings: Table C
[16] = biological target: T1, human CB2 receptor; test: Radioligand binding assay, hCB2; design: 93-0164 (CHO-K1 EA-Arrestin parental line); host or cells: CHO-K1 EA-Arrestin, clone #61; settings: Table C
Protocol: Preparation of Membranes: HTEK293 cells stably expressing human CB2 receptor were collected, washed in ice cold PBS, and centrifuged at 48,000×g for 20 min at 4° C. The cell pellet was then collected, resuspended in wash buffer (20 mM HEPES, pH 7.4 and 1 mM EDTA), homogenized on ice using a Brinkman Polytron, and centrifuged at 48,000×g for 20 min at 4° C. The resultant pellet was resuspended in ice cold 20 mM HEPES, pH 7.4, homogenized again on ice, recentrifuged for 20 min at 4° C., and membrane pellets were then stored at −80° C. until needed.
[^3H]CP55,940 and [^3H]WIN55,212-2 Radioligand Binding Assays: Radioligand binding assays for human CB2 receptors were performed using two different agonist radioligands, [^3H]CP55,940 and [^3H]WIN55,212-2 and similar assay conditions. For both assays, nonspecific binding was determined in the presence of 10 mM unlabeled compound. […] Then, 25 μL of BetaScint scintillation cocktail was added to each well, and plates were read in a Packard TopCount scintillation counter.

[17] = tested on: capsaicin-induced hyperalgesia and allodynia; settings: topical administration, humans; cited from earlier work
[18] = biological target: CB1 (Mus musculus, UniProt P47746); settings: exogenous administration; cited from earlier work
Sequence of CB1 (P47746 whole entry): as the sequence (P20272 whole entry) above, with E95D counted along it

Structure (SMILES): CN1CCCCC1Cn1cc(C(=O)c2cc([N+](=O)[O-])ccc2I)c2ccccc21 (stereo not drawn) [AM1241]
- Hyperalgesia in carrageenan, capsaicin, and formalin models [1]: suppresses hyperalgesia
- Tactile and thermal hypersensitivity [2]: reverses tactile and thermal hypersensitivity

Structure (SMILES): CC(C)(CO)NC(=O)c1nn(-c2ccc(F)cc2F)c2c1C[C@H]1C[C@@H]21 [Compound 493, (1aR,5aR)-2-(2,4-Difluoro-phenyl)-1a,2,5,5a-tetrahydro-1H-2,3-diaza-cyclopropa[a]pentalene-4-carboxylic acid (2-hydroxy-1,1-dimethyl-ethyl)-amide]
- Paw withdrawal threshold (PWT) in comparison with vehicle [3]: Increase in paw withdrawal threshold (PWT)
- Paw withdrawal threshold (PWT) in comparison with the vehicle [4]: increase in paw withdrawal threshold (PWT)
- Time of maximum efficacy post-dosing [5]: 1 h
- Paw withdrawal threshold (PWT) in comparison with vehicle and gabapentin ([5]; von Frey 30, 60 and 180 minutes after dosing): increase in paw withdrawal threshold (PWT)

Structure (SMILES): CC(C)(C)[C@@H](CO)NC(=O)c1nn(-c2c[n+]([O-])ccn2)c2c1C[C@@H]1C[C@H]21 [Compound 699, (1aS,5aS)-2-(4-Oxy-pyrazin-2-yl)-1a,2,5,5a-tetrahydro-1H-2,3-diaza-cyclopropa[a]pentalene-4-carboxylic acid ((S)-1-hydroxymethyl-2,2-dimethyl-propyl)-amide]
- Kind of activity at the CB2 receptor [6]: full agonist
- EC50 [7]: 6 to 8 nM
- EC50 [8]: 6 to 8 nM
- Interaction with recombinant human CB1 receptors [9]: did not interact
- Interaction with recombinant rat CB1 receptors [10]: did not interact
- Interaction with recombinant dog CB1 receptors [11]: did not interact
- Analgesic efficacy (tactile allodynia, 50% withdrawal threshold) [12]: robust and sustained analgesic efficacy over 6 hours
- Efficacy on writhing behavior [13]: efficacious
- Response (VMR) in rats with healthy colons ([14]; 30 mg/kg oral gavage twice daily for five days): without changing response
- Colonic hypersensitivity, dose dependence ([14]; 10 and 30 mg/kg oral gavage twice daily, rats with TNBS-induced colitis): reducing colonic hypersensitivity in a dose-dependent manner
- Visceral pain response (VMR to colorectal distension), rats with TNBS-induced colitis ([14]; 10 or 30 mg/kg oral gavage twice daily for five days, FIG. 13): reduces the visceral pain response

Structure (SMILES): CONC(=O)[C@@H](NC(=O)c1nn(-c2c[n+]([O-])ccn2)c2c1C[C@H]1C[C@@H]21)C(C)(C)C [Compound 755, (1aR,5aR)-2-(4-Oxy-pyrazin-2-yl)-1a,2,5,5a-tetrahydro-1H-2,3-diaza-cyclopropa[a]pentalene-4-carboxylic acid ((S)-1-methoxycarbamoyl-2,2-dimethyl-propyl)-amide]
- Ki [15]: 1200 nM
- Ki [16]: 3.8 nM

Structure (SMILES): CCCCCCC(C)(C)c1cc(O)c2c(c1)OC(C)(C)[C@@H]1CC=C(CO)C[C@@H]21 [HU-210]
- Capsaicin-induced hyperalgesia and allodynia [17]: attenuates capsaicin-induced hyperalgesia and allodynia

Structure (SMILES): CCCCC/C=C\C/C=C\C/C=C\C/C=C\CCCC(=O)NCCCl [arachidonyl-2-chloroethylamide]
- Effect on pain [18]: reduces pain
